Measured values: patent US7767200B2, “Cancer treatment using viruses, fluoropyrimidines and camptothecins” (Wellstat Biologics Corporation, priority 2005, dated 2010)

Key:
[1] = test system: human HT1080 fibrosarcoma cells; set-up: species or system athymic mice; details: mouse, in vivo
[2] = test system: human SW620 colon carcinoma cells; set-up: species or system athymic mice; details: mouse, in vivo

SMILES | Complete Tumor Responses (CR), % [1] [%] | Durable CRs, % [2] [%]
O=c1[nH]cc(F)c(=O)[nH]1 [5-FU, 5-fluorouracil] | 0 | 0
CCc1c2c(nc3ccc(OC(=O)N4CCC(N5CCCCC5)CC4)cc13)-c1cc3c(c(=O)n1C2)COC(=O)[C@]3(O)CC [Irinotecan, 7-ethyl-10-[4-(1-piperidino)-1-piperidino]-carbonyloxycamptothecin] | – | 0
